The subject of this assay is Atoh1 locus. Description: Chromatin immunoprecipitation (ChIP-qPCR) of histone marks on the Atoh1 gene in LCPs. Type of assay: cell-based, mouse. On the procedure: Chromatin immunoprecipitation. The colonies were treated with Cell Recovery solution for up to 2 hours and TrypleE for 30 minutes. The cells were fixed with 1% formaldehyde for 30 minutes at room temperature before termination with 0.1M Glycine. The cells were treated with lysis buffer (0.5M EDTA and 0.05% Triton-X 100) for 30 minutes on ice and then with nuclear extraction buffer (0.5M EDTA, 20% SDS, 1M Tris-HCl, pH 8) for 10 minutes. The cross-linked chromatin was sonicated for 30 minutes (30×30 seconds with 30 second intervals) and shearing quality confirmed by running 10 ul of the sample on a 1% agarose gel. The input sample used was 5% of the total chromatin. Lo-bind tubes containing Dyna-A and Dyna-B beads in PBS-BSA were incubated with 3 μg of Primary antibody for 6 hours-overnight with rotation at 4° C. The antibodies used were as follows H3K4me (ab8895: Abcam), H3K4me2 (ab77661: Abcam), H3K9me2 (ab1220; Abcam) and Lsd1 (ab17721: Abcam). The chromatin samples were treated with dilution buffer (1% Triton-X 100, 0.5M EDTA, 5M NaCl, 1M Tris-HCl, pH 8 and 1% Protease inhibitors×100) and incubated with the prepared beads for 6 hours-overnight. The beads were captured on a magnetic rack, washed with ChIP RIPA buffer (1M Hepes, 0.5M EDTA, 10% Na-deoxycholate, NP-40 and 5M LiCl: 6×10 minute washes), TE buffer (1M Tris-HCl and 0.5M EDTA: 2×10 minute washes), resuspended in reverse crosslinking solution (0.5M NaHCO3 and 20% SDS) and incubated overnight at 65° C. DNA was recovered using the Active motif DNA extraction kit (58002: Active Motif). RT-qPCR analyses were performed on immunoprecipitated DNA using specific primers described in Table 2. The results were calculated and presented as relative fold enrichment over the input.
In order to further dissect the mechanism of Lsd1 activity, we analyzed changes in epigenetic marks on several sites along the Atoh1 gene using chromatin immunoprecipitation. We used the LCPs starting at day 0 (D0) of differentiation with day 10 (D10) as the endpoint (FIG. 5A). Lsd1 has been characterized to demethylate the activating epigenetic marks H3K4me and H3K4me2 (Shi et al., 2004). […] Consistently, we observed accumulation of the activating H3K4me2 mark at the proximal promoter region (region 2) of the Atoh1 gene during hair cell differentiation (D10, p<0.05*: FIG. 5B). […] In addition, we examined the enrichment levels of H3K4me around the Atoh1 locus. […] Collectively, these findings reveal that Lsd1 inhibition increases accumulation of activating epigenetic marks, thereby facilitating the opening of the chromatin and activating transcription of the Atoh1 gene.
As Lsd1 is also known to demethylate H3K9me2, we analyzed the changes in the levels of this repressive mark at the Atoh1 locus (Metzger et al., 2005).
In general terms: In qPCR the cycle at which signal appears reflects the starting amount.

Regarding `C#CCN(C)Cc1ccccc1` [pargyline, N-Methyl-N-propargylbenzylamine], the “levels of H3K4me2 at the enhancer regions (region 5) of Atoh1” value (D10 with pargyline) is given as “not statistically significant”. Besides, the “level of H3K4me2 at the proximal promoter region (region 2) of Atoh1” value (D10 with pargyline compared to D0, p<0.01) is reported as “significantly increased”. For the setting “addition of pargyline”, the “enrichment for H3K9me2 on the Atoh1 gene” value is listed as “did not significantly alter”. Moreover, the “H3K4me mark at the enhancer region (region 5) of Atoh1” value (after pargyline treatment, p<0.01) is listed as “significant enrichment”.

The values above are taken from US20240245702A1, “Inhibition of Lysine Demethylase 1 (Lsd1) Induces Differentiation of Hair Cells” (Massachusetts Eye and Ear Infirmary, priority 2018, published 2024).
